This note sets out measurements from patent US10710980B2, “Aminopyridine derivatives and their use as selective ALK-2 inhibitors” (priority 2016, dated 2020).

Experiment [1] has as its target T1, wild-type ALK2 (aa172-499) (Homo sapiens (Human), UniProt Q04771). Put plainly: ADPGlo biochemical autophosphorylation assay, ALK2. Conditions: 15 μm ATP, 60 min at 32° C. In general terms: ADP-Glo first removes unused ATP, then detects ADP through luciferase.
Experiment [2] addresses ALK3 (aa198-525) (Homo sapiens (Human), UniProt P36894). Nature of the experiment: ADPGlo biochemical autophosphorylation assay, ALK3. Conditions: 15 μm ATP, 60 min at 32° C.
The target of experiment [3] is ALK5 (aa162-503) (Homo sapiens (Human), UniProt P36897). Put plainly: Caliper biochemical peptide phosphorylation assay, ALK5. Conditions: 15 μm ATP, 60 min at 30° C.; read-out: ALK5 EPK (IC50).
Experiment [4] has as its target ALK1 (aa166-493) (Homo sapiens (Human), UniProt P37023). Nature of the experiment: Caliper biochemical peptide phosphorylation assay, ALK1. Conditions: 15 μm ATP, 60 min at 30° C.; read-out: ALK1 EPK (IC50).
Experiment [5] deals with BMP response element (BRE) luciferase reporter in HuH7 cells, BMP6 stimulated. Nature of the experiment: BMP signaling reporter gene assay. Type of experiment: cell-based. Conditions: Homo sapiens, read-out: MSD BMP RGA IC50.
Experiment [6] addresses T1, wild-type ALK2 (aa172-499). Put plainly: Caliper biochemical peptide phosphorylation assay, ALK2. As to conditions: 15 μm ATP, 60 min at 30° C.; read-out: ALK2 EPK (IC50).
Experiment [7] addresses ALK6 (aa168-495) (Homo sapiens (Human), UniProt O00238). Nature of the experiment: Caliper biochemical peptide phosphorylation assay, ALK6. As to conditions: 15 μm ATP, 60 min at 30° C.; read-out: ALK6 EPK (IC50).
The mark [8] stands for this setting: Huh-7, HuH7 BRE-luciferase, BMP6 100 ng/ml, 5 hours.

SMILES strings stand for the structures. Read-outs that look alike come from different tables or passages of the source.

Chain of ALK5 (aa162-503) (P36897 162-503): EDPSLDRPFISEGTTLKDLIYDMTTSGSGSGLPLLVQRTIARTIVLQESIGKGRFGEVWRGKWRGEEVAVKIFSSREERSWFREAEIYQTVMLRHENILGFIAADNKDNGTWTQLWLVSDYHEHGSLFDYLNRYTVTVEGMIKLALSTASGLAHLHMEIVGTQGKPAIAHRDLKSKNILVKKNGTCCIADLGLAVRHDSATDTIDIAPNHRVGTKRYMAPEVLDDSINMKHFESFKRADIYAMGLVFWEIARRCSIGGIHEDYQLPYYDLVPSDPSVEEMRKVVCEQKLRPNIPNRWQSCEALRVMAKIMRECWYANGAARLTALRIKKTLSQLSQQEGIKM
Chain of ALK3 (aa198-525) (P36894 198-525): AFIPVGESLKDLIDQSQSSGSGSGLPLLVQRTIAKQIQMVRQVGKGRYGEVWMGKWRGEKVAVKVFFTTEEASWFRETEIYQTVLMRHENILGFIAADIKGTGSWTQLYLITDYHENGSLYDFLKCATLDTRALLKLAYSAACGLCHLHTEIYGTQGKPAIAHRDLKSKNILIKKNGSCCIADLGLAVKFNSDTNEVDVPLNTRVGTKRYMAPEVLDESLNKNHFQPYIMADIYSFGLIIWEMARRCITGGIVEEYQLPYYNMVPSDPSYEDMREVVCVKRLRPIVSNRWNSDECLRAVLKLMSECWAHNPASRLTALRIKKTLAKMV
Chain of ALK1 (aa166-493) (P37023 166-493): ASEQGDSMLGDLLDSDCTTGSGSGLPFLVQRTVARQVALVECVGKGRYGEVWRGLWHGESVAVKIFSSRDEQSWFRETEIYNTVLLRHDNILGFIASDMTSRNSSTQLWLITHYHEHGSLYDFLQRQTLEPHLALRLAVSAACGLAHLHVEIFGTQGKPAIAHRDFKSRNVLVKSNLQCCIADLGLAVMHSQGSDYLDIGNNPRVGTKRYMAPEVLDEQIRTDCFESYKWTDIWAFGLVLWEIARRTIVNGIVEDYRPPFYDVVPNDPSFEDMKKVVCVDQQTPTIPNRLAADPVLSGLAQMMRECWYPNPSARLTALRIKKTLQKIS
Chain of ALK6 (aa168-495) (O00238 168-495): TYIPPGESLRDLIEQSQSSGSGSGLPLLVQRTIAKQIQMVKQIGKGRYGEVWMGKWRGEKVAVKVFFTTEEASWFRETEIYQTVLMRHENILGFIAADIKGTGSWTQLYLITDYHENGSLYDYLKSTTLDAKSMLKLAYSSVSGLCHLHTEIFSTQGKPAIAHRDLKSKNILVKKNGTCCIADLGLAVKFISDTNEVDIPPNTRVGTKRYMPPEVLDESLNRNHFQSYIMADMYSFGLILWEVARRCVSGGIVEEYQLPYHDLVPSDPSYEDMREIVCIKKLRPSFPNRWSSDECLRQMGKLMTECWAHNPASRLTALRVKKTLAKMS
T1 sequence (Q04771 172-499): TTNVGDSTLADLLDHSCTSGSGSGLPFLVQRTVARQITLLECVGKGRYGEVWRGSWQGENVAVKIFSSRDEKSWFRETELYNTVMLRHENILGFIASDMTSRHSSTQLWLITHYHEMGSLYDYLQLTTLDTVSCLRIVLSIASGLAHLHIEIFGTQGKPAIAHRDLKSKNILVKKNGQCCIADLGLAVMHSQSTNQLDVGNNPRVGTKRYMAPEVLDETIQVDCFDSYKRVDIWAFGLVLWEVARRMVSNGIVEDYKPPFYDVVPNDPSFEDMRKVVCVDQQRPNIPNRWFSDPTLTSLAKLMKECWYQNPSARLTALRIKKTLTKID

For orientation: IC50 means the concentration that inhibits the measured activity by half. For the compound `C[C@H](c1ccc(-c2cnc(N)c(C(=O)N[C@H]3CC[C@](C)(O)CC3)c2)cc1)N1CC2(COC2)C1` [Example 59, 5-(4-((R)-1-(2-oxa-6-azaspiro[3.3]heptan-6-yl)ethyl)phenyl)-2-amino-N-((1r,4R)-4-hydroxy-4-methylcyclohexyl)nicotinamide], the 50% inhibitory concentration (IC50) in experiment [1] came to 24 nM; in experiment [2], 2700 nM; in experiment [3], 9.1 µM; in experiment [4] it was 770 nM; in experiment [5] (setting [8]), 405 nM; in experiment [6] it was 33 nM. For the same compound, the IC50 in experiment [7] stood at 7.7 µM.

Consider `Nc1ncc(-c2ccc([C@@]34C[C@@H]3CN(C(CF)CF)C4)cc2)cc1C(=O)N[C@H]1CC[C@H](O)CC1` [Example 6, 2-amino-5-(4-((1R,5S)-3-(1,3-difluoropropan-2-yl)-3-azabicyclo[3.1.0]hexan-1-yl)phenyl)-N-((1r,4R)-4-hydroxycyclohexyl)nicotinamide], for which the IC50 in experiment [1] is 18 nM; in experiment [2], 940 nM; in experiment [3], 10 µM; in experiment [4], 220 nM; in experiment [5] (setting [8]) it was 870 nM; in experiment [6] it was 15 nM. The IC50 in experiment [7] was 5.2 µM.

For `C[C@@H]1CCCN1Cc1ccc(-c2cnc(N)c(C(=O)N[C@H]3CC[C@](C)(O)CC3)c2)c(F)c1` [Example 56, 2-amino-5-(2-fluoro-4-(((R)-2-methylpyrrolidin-1-yl)methyl)phenyl)-N-((1r,4R)-4-hydroxy-4-methylcyclohexyl)nicotinamide], the IC50 in experiment [1] is 28 nM; in experiment [2], 9900 nM; in experiment [3], 5.8 µM; in experiment [4], 930 nM; in experiment [5] (setting [8]), 285 nM; in experiment [6] it was 30 nM. Also, the IC50 in experiment [7] was found to be 10 µM.

Turning to `C[C@@H]1CCCN1Cc1ccc(-c2cnc(N)c(C(=O)N[C@H]3CC[C@H](O)CC3)c2)cc1` [Example 31, 2-amino-N-((1r,4R)-4-hydroxycyclohexyl)-5-(4-(((R)-2-methylpyrrolidin-1-yl)methyl)phenyl)nicotinamide], the half-maximal inhibitory concentration (IC50) was determined as 13 nM in experiment [1]; 1200 nM in experiment [2]; 3.5 µM in experiment [3]; 230 nM in experiment [4]; 115 nM in experiment [5] (setting [8]); 20 nM in experiment [6]. Further, the IC50 in experiment [7] amounted to 4.5 µM.

Take `CN1CCN(C(=O)c2ccc(-c3cnc(N)c(C(=O)N[C@H]4CC[C@@H](O)CC4)c3)cc2)CC1` [Example 79, 2-amino-N-((1s,4s)-4-hydroxycyclohexyl)-5-(4-(4-methylpiperazine-1-carbonyl)phenyl)nicotinamide]: the half-inhibitory concentration (IC50) in experiment [1] came out at 86 nM; in experiment [2], 6500 nM; in experiment [3], 4.1 µM; in experiment [4], 890 nM; in experiment [5] (setting [8]), 2700 nM; in experiment [6], 87 nM. Also, in experiment [7], the IC50 amounted to 10 µM.

In the case of `Nc1ncc(-c2ccc([C@]34C[C@H]3CN(CC3COC3)C4)cc2)cc1C(=O)N[C@H]1CC[C@H](O)CC1` [Example 38, 2-amino-N-((1r,4S)-4-hydroxycyclohexyl)-5-(4-((1S,5R)-3-(oxetan-3-ylmethyl)-3-azabicyclo[3.1.0]hexan-1-yl)phenyl)nicotinamide], the IC50 in experiment [1] amounted to 7 nM; in experiment [2], 1300 nM; in experiment [3], 1.5 µM; in experiment [4] it was 160 nM; in experiment [5] (setting [8]) it was 58 nM; in experiment [6] it was 28 nM. The half-maximal inhibitory concentration (IC50) in experiment [7] came to 2.6 µM.

In the case of `CC(C)N1C[C@@H]2C[C@]2(c2ccc(-c3cnc(N)c(C(=O)N[C@H]4CC[C@@H](O)CC4)c3)cc2)C1` [Example 71, 2-amino-N-((1s,4R)-4-hydroxycyclohexyl)-5-(4-((1S,5R)-3-isopropyl-3-azabicyclo[3.1.0]hexan-1-yl)phenyl)nicotinamide], the IC50 in experiment [1] is 22 nM; in experiment [2] it was 2900 nM; in experiment [3] it was 3 µM; in experiment [4], 490 nM; in experiment [5] (setting [8]), 86 nM; in experiment [6], 65 nM. Besides, the half-inhibitory concentration (IC50) in experiment [7] was 5.8 µM.

Consider `Nc1ncc(-c2ccc([C@]34C[C@H]3CN(CCC(F)(F)F)C4)cc2)cc1C(=O)N[C@H]1CC[C@H](O)CC1` [Example 17, 2-amino-N-((1r,4S)-4-hydroxycyclohexyl)-5-(4-((1S,5R)-3-(3,3,3-trifluoropropyl)-3-azabicyclo[3.1.0]hexan-1-yl)phenyl)nicotinamide], for which the IC50 in experiment [1] was 12 nM; in experiment [2] it was 2000 nM; in experiment [3], 1.6 µM; in experiment [4] it was 110 nM; in experiment [5] (setting [8]), 150 nM; in experiment [6] it was 14 nM. Moreover, the half-maximal inhibitory concentration (IC50) in experiment [7] is 2.4 µM.

In the case of `Nc1ncc(-c2ccc([C@@]34C[C@@H]3CN(CCN3CCOCC3)C4)cc2)cc1C(=O)N[C@H]1CC[C@H](O)CC1` [Example 10, 2-amino-N-((1r,4R)-4-hydroxycyclohexyl)-5-(4-((1R,5S)-3-(2-morpholinoethyl)-3-azabicyclo[3.1.0]hexan-1-yl)phenyl)nicotinamide], the 50% inhibitory concentration (IC50) was 11 nM in experiment [1]; 1400 nM in experiment [2]; 2.6 µM in experiment [3]; 89 nM in experiment [4]; 61 nM in experiment [5] (setting [8]); 11 nM in experiment [6]. The IC50 in experiment [7] was 2.5 µM.

With `CC(C)N1C[C@H]2C[C@@]2(c2ccc(-c3cnc(N)c(C(=O)N[C@H]4CC[C@H](O)CC4)c3)cc2)C1` [Example 2, 2-amino-N-((1r,4R)-4-hydroxycyclohexyl)-5-(4-((1R,5S)-3-isopropyl-3-azabicyclo[3.1.0]hexan-1-yl)phenyl)nicotinamide], the IC50 was 12 nM in experiment [1]; 1770 nM in experiment [2]; 2.17 µM in experiment [3]; 93 nM in experiment [4]; 21 nM in experiment [5] (setting [8]); 11 nM in experiment [6]. The IC50 in experiment [7] stood at 2.5 µM.

Consider `N#CCCN1C[C@@H]2C[C@]2(c2ccc(-c3cnc(N)c(C(=O)N[C@H]4CC[C@H](O)CC4)c3)cc2)C1` [Example 51, 2-amino-5-(4-((1S,5R)-3-(2-cyanoethyl)-3-azabicyclo[3.1.0]hexan-1-yl)phenyl)-N-((1r,4S)-4-hydroxycyclohexyl)nicotinamide], for which the 50% inhibitory concentration (IC50) in experiment [1] is 16 nM; in experiment [2] it was 780 nM; in experiment [3] it was 1.4 µM; in experiment [4], 120 nM; in experiment [5] (setting [8]) it was 64 nM; in experiment [6] it was 31 nM. Further, the IC50 in experiment [7] was found to be 1.7 µM.

Regarding `Nc1ncc(-c2ccc([C@@]34C[C@@H]3CN(C3CCOCC3)C4)cc2)cc1C(=O)NC12CCC(O)(CC1)CC2` [Example 34, 2-amino-N-(4-hydroxybicyclo[2.2.2]octan-1-yl)-5-(4-((1R,5S)-3-(tetrahydro-2H-pyran-4-yl)-3-azabicyclo[3.1.0]hexan-1-yl)phenyl)nicotinamide], the half-inhibitory concentration (IC50) in experiment [1] came to 18 nM; in experiment [2], 914 nM; in experiment [3], 6.28 µM; in experiment [4] it was 323 nM; in experiment [5] (setting [8]), 49 nM; in experiment [6] it was 23 nM. Moreover, the 50% inhibitory concentration (IC50) in experiment [7] came out at 3.3 µM.

With `Nc1ncc(-c2ccc([C@]34C[C@H]3CN(CC(F)(F)F)C4)cc2)cc1C(=O)N[C@H]1CC[C@H](O)CC1` [Example 67, 2-amino-N-((1r,4S)-4-hydroxycyclohexyl)-5-(4-((1S,5R)-3-(2,2,2-trifluoroethyl)-3-azabicyclo[3.1.0]hexan-1-yl)phenyl)nicotinamide], the IC50 in experiment [1] was found to be 22 nM; in experiment [2], 1900 nM; in experiment [3], 10 µM; in experiment [4] it was 180 nM; in experiment [5] (setting [8]) it was 1160 nM; in experiment [6] it was 50 nM. In addition, the 50% inhibitory concentration (IC50) in experiment [7] was found to be 8.7 µM.

Turning to `Nc1ncc(-c2ccc([C@]34C[C@H]3CN(C(CF)CF)C4)cc2)cc1C(=O)N[C@H]1CC[C@H](O)CC1` [Example 66, 2-amino-5-(4-((1S,5R)-3-(1,3-difluoropropan-2-yl)-3-azabicyclo[3.1.0]hexan-1-yl)phenyl)-N-((1r,4S)-4-hydroxycyclohexyl)nicotinamide], the concentration for half-maximal inhibition (IC50) was 15 nM in experiment [1]; 1200 nM in experiment [2]; 10 µM in experiment [3]; 190 nM in experiment [4]; 910 nM in experiment [5] (setting [8]); 56 nM in experiment [6]. For the same compound, the IC50 in experiment [7] is 6.2 µM.

Take `Nc1ncc(-c2ccc(CN3CC4(CCC4)C3)cc2)cc1C(=O)N[C@H]1CC[C@H](O)CC1` [Example 23, 5-(4-(2-azaspiro[3.3]heptan-2-ylmethyl)phenyl)-2-amino-N-((1r,4r)-4-hydroxycyclohexyl)nicotinamide]: the half-inhibitory concentration (IC50) in experiment [1] was 9 nM; in experiment [2], 1600 nM; in experiment [3], 2.7 µM; in experiment [4] it was 250 nM; in experiment [5] (Huh-7, 5 h), 23 nM; in experiment [6], 18 nM. The IC50 in experiment [7] amounted to 2.4 µM.
